According to US7312322B1, “Genetic sequences encoding steroid and juvenile hormone receptor polypeptides and insecticidal modalities therefor” (priority 1998, dated 2007):
Where “and” joins values, the source holds several entries; their conditions need not be identical. Identical values can stand only once.

Target: T1, EcR polypeptide subunit of the D. melanogaster ecdysone receptor (Drosophila melanogaster, UniProt P34021)
T1 construct: expressed in transfected cells; host or cells: CHO cells
T1 sequence (P34021 1-878): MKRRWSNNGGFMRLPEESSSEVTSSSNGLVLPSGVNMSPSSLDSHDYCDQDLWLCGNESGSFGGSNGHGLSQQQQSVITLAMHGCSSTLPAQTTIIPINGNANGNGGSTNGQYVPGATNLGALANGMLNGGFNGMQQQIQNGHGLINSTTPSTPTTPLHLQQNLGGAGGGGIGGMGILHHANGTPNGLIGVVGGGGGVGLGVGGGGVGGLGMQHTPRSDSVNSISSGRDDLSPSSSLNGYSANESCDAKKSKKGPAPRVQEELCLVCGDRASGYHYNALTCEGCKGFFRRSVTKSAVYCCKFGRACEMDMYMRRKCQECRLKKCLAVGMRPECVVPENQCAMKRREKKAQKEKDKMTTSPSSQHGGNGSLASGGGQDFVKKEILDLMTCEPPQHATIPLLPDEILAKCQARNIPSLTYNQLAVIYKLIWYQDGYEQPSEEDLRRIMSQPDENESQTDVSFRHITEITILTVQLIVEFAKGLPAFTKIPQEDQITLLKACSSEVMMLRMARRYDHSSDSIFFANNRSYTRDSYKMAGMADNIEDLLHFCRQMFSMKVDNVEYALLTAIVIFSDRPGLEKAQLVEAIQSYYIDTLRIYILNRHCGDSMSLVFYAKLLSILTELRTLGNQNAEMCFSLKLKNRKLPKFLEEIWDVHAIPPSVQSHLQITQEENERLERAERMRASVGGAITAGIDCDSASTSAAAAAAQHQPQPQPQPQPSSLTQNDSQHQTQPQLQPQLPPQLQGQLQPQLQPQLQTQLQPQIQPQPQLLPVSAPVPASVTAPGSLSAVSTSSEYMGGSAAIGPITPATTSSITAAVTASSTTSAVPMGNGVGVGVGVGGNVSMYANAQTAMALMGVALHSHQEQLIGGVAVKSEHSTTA
Test: CHO cell co-transfection CAT reporter assay, pSV40-EcR with p(EcRE)7-CAT
Assay type: cell-based
Conditions: for Fold-induction of expression: 30° C., PNA 20 μM, CHO cells
Method: Chinese hamster ovary (CHO) cells were maintained in 50% (v/v) Dubbecco's modified Eagle's medium (DMEM) and 50% (v/v) Hamm F12 nutrient mixture (GIBCO) supplemented with 10% (v/v) foetal bovine serum. Transfection was carried out by the DNA-calcium phosphate co-precipitation method (Ausubel et al, 1992). One day before transfection with the plasmids described in Examples 1 and/or 2, or other expression plasmids, CHO cells were plated out at 5-8×10^5 cells per 6 cm diameter culture dish in the above DMEM/F12 medium. Three hours before the addition of the DNA-calcium phosphate co-precipitate, the cells were washed with phosphate buffered saline (PBS; Sambrook et al., 1989) and cultured in fresh DMEM plus 10% (v/v) foetal bovine serum. The cells were incubated in the presence of the co-precipitate for eighteen hours before excess DNA was removed by washing with PBS. The cells were then cultured for another day in DMEM/F12 supplemented with 10% (v/v) foetal bovine serum with or without added ponasterone A (PNA), before harvesting. Cells were washed with PBS, harvested by mechanical scraping in 0.25 M Tris-HCl (pH 7.8), and disrupted by three freeze-thaw cycles.
All transfections included, in addition to expression and reporter plasmids, a β-galactosidase-expressing plasmid designated pPgK-LacZ (McBurney et al, 1991), which served as an internal control for the efficiency of transfection, and pUC18 DNA in an amount sufficient to produce 10 μg total DNA per culture dish.
The chloramphenicol acetyltransferase (CAT) and β-galactosidase activities encoded by the reporter genes present in the reporter plasmids were assayed as described in Sambrook et al, (1989).
To determine whether the D. melanogaster ecdysone receptor polypeptide is stable at physiological temperatures above about 30° C., CHO cells were transfected as described in Example 3, with the plasmid pSV40-EcR and the reporter plasmid p(EcRE)7-CAT in the presence of PNA, at 30° C. and 37° C.
Briefly, CHO cells were plated out at 37° C. sixteen to twenty hours before transfection. After washing away the DNA, the cells were cultured for two hours in fresh medium with or without hormone and the dishes divided into duplicate sets. One set was cultured for another day at 37° C. before harvesting for CAT and β-galactosidase assays. The other set was cultured for three days at 30° C. before assaying enzyme activities. Results indicated a reduction in the fold-induction of gene expression regulated by the D. melanogaster ecdysone receptor polypeptide at 37° C., compared to the fold-induction at 30° C., as shown in Table 1.

`CC(C)CC[C@@H](O)[C@](C)(O)[C@H]1CC[C@@]2(O)C3=CC(=O)[C@@H]4C[C@@H](O)[C@@H](O)C[C@]4(C)[C@H]3CC[C@]12C` [PNA, ponasterone A] was tested, and the Fold-induction of expression (pSV40-EcR 0.1 μg/dish) was 39X and 25X, the Fold-induction of expression (pSV40-EcR 0.5 μg/dish) was 26X and 33X and the Fold-induction of expression (pSV40-EcR 2.5 μg/dish) was 35X and 54X. For the same compound, the “induction of CAT activity” value (CHO cells co-transfected with p(EcRE)7-CAT and pSV40-EcR, in the presence of PNA) was 50 units of activity.
